From PubChem BioAssay AID179 (DTP/NCI, 2004)
Calls of active or inactive are those of the source.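 How the source made its calls: active means compounds giving half or more protection of infected cells from virus-caused growth loss, again on retest; inactive means the rest.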

Test system: CEM cells HIV-1 protection, formazan growth assay
Experiment: NCI AIDS Antiviral Assay
Details: for IC50: measured here: growth of uninfected CEM cells
Summary of the method: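 Protection of CEM cells against HIV-1 was scored from cell growth (soluble formazan) across five concentrations, with parallel uninfected cells. Lack of protection may reflect toxicity.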

Structure (SMILES) | EC50 | IC50 | outcome
COc1ccc(C(C(N)=O)N2CCOCC2)cc1 (configuration not stated) | 129 µM | > 200 µM | 
Cc1cc2c(C=O)[nH]nc2c(C#N)c1C |  |  | inactive
NC1=Nc2ccccc2Sc2nnc(-c3ccc(Cl)cc3)n21 | > 200 µM | 115 µM | 
COc1ccc(C2C3=C(COC3=O)OC(C)(C)Oc3cc4c(cc32)OCO4)cc1 (configuration not stated) | > 200 µM | 13.8 µM | 
O=C(CCCCCCCCC(=O)NCC1(c2ccccc2)CCN(Cc2ccccc2)CC1)NCC1(c2ccccc2)CCN(Cc2ccccc2)CC1 | > 200 µM | 102 µM | 
O=C(O)c1ccccc1/C=C1\Cc2cc3c(cc2C1=O)CCC3 | > 200 µM | > 200 µM | 
NC(=O)CN1CC(C2=C(O)CN(CC(N)=O)C2=O)=CC1=O |  |  | inactive
Clc1ccnc2c1ccc1c(Cl)ccnc12 | > 75.9 µM | 13.8 µM | 
COC(=O)CC(C)(NS(=O)c1ccc(C)cc1)c1ccccc1 (configuration not stated) | > 200 µM | 120 µM | 
Nc1cc(N2CCOCC2)nc(=O)n1-c1ccc(Cl)cc1 | > 200 µM | > 200 µM | 
CC(=O)Nc1ccc(/C=C2\SC(=S)N(C=C(C#N)C#N)C2=O)cc1 | > 200 µM | 49 µM | 
O=C(O)Cc1ccc(Nc2nc3ccccc3nc2C(=O)O)cc1 | > 200 µM | > 200 µM | 
CC12CCC3(OCCO3)C(OC(=O)c3ccccc3)=C1CCC21OCCO1 (configuration not stated) |  |  | inactive
CC(=S)NC1C(Oc2ccc3c(C)cc(=O)oc3c2)OC(CO)C(O)C1O (configuration not stated) | > 200 µM | > 200 µM | 
COc1ccc(CCn2nccc2C)cc1 | > 200 µM | > 200 µM | 
CC(=O)OC(C(=O)[O][Ge]([CH3])([CH3])[CH3])c1ccccc1 (configuration not stated) |  |  | inactive
Cc1ccccc1NC(=O)C(=O)CC(=O)c1ccc([N+](=O)[O-])cc1 | > 8.32 µM | > 8.32 µM | 
COc1c(C2(c3ccc(F)cc3)SCCCS2)c(=O)c1=O | > 200 µM | > 200 µM | 
CCOC(=O)C(C)NC(=O)C(C)NC(=O)C(C)NC(=O)C(C)NC(=O)C(C)NC(=O)OCc1ccccc1 (configuration not stated) | > 200 µM | > 200 µM | 
Cc1[nH]cc2c1C(c1ccccc1)=NCC(=O)N2 | > 200 µM | > 200 µM | 
COc1ccc(N2C(Cl)C(=O)C2c2c[nH]c3ccccc23)cc1 (configuration not stated) | > 151 µM | 132 µM | 
Cc1ccc2c(c1)C(=O)C1(C2)Cc2c(C)cccc2C1=O (configuration not stated) | > 200 µM | > 200 µM | 

Structure (SMILES) | EC50 | IC50 | outcome
CC1=NN=C(N)NC1=CC(Sc1ccc(Cl)cc1)c1c(O)ccc2ccccc12 (configuration not stated) | > 200 µM | 11.2 µM | 
CC(=O)OC(C)(C)CCC(=O)[C@](C)(O)[C@H]1[C@H](O)C[C@@]2(C)[C@@H]3CC=C4C(C)=C(OC5OC(CO)C(O)C(O)C5O)C(=O)C[C@@H]4[C@]3(C)C(=O)C[C@]12C (some centres not stated) | > 200 µM | > 200 µM | 
COc1ccc(N=Nc2c(N)nn3cc4c(nc23)-c2ccccc2C4)cc1 | > 200 µM |  | 
O=c1[nH]c2c(c(=O)[nH]1)SC(c1ccccc1)C2 (configuration not stated) | > 200 µM | > 200 µM | 
COc1cc(C2SCC(=O)N2c2ccc(-c3ccc(-n4c(-c5ccccc5)nc5ccccc5c4=O)cc3)cc2)cc(OC)c1OC (configuration not stated) | > 200 µM | 14.8 µM | 
COc1ccc(-n2c(=O)n(C)c(=O)n2-c2c(C)c(C)c(C)c(C)c2C)cc1 | > 100 µM | 18.6 µM | 
CCCC1C2C(=O)N(c3ccccc3)C(=O)C2ON1c1ccccc1 (configuration not stated) | > 40.7 µM | > 40.7 µM | 
O=C(Cc1ccc([N+](=O)[O-])cc1)OCC#CCOC(=O)Cc1ccc([N+](=O)[O-])cc1 | > 200 µM | > 200 µM | 
Cc1ccc(S(=O)(=O)C2c3nc4ccccc4cc3-c3nc4ccccc4nc32)cc1 (configuration not stated) | > 32.4 µM | > 32.4 µM | 
COc1cccc2c1[C@]1(O)C(O)CCCC21 (some centres not stated) | > 200 µM | > 200 µM | 
S=C(NCCc1ccccn1)N/N=C(\c1ccccc1)c1ccccn1 | > 0.2 µM | 0.0676 µM | 
COC(=O)C1=NN2c3ccccc3C(=O)OCCC2C1 (configuration not stated) | > 200 µM | > 200 µM | 
CCOC(=O)c1ccccc1NC(=O)CN(CC)CC | > 200 µM | > 200 µM | 
CC1(C)CC[C@]2(C(=O)OC3OC(CO)C(O)C(O)C3O)CCC3(C)C(=CCC4[C@@]5(C)C[C@H](O)[C@H](OC6OC(CO)C(O)C(O)C6O)[C@@](C)(C(=O)O)C5CC[C@]43C)C2C1 (some centres not stated) | > 191 µM | > 191 µM | 
COc1cc(O)c2c(=O)c(O)c(-c3ccc(O)c(O)c3)oc2c1 | > 93.3 µM | 47.9 µM | 
O=C1CC([C@H](NC(=O)OCc2ccccc2)C(=O)O)ON1 (some centres not stated) |  |  | inactive
O=C(CC(C(=O)c1ccoc1)c1ccco1)c1ccco1 (configuration not stated) | > 200 µM | 151 µM | 
N#C/C(=C\c1ccccc1F)C(=O)O | > 676 µM | 302 µM | 
NC(CCC(=O)NC(CSc1ccc([N+](=O)[O-])cc1[N+](=O)[O-])C(=O)NCC(=O)O)C(=O)O (configuration not stated) | > 525 µM | > 525 µM | 
CC1(C)OC(=O)C2C3C=CC(C2C(=O)O)C31 (configuration not stated) | > 1120 µM | > 1120 µM | 
O=S(=O)(O)C(=Nc1cccc(Cc2ccccc2)c1)Nc1cccc(Cc2ccccc2)c1 | > 200 µM | 14.8 µM | 
O=C(OC1Cc2c(O)cc(O)cc2OC1c1ccc(O)c(O)c1)c1cc(O)c(O)c(O)c1 (configuration not stated) | > 56.2 µM | 49 µM | 
